“And” between values parts separate entries of the source, which are not always exact repeats. Identical values can stand only once. Like-named read-outs stand apart in the source and are kept apart here.
Legend:
Assay type in all cases: in vivo, Meloidogyne incognita
M. incognita [1] = conditions: for Efficacy (%): DS formulation, inoculated 14 days after sowing, galling 28 days after inoculation; for average rating (gall rating, score 0.1-7): tomato, untreated control 4.6
Meloidogyne spp. = assay: General statement of effectiveness against nematodes by plant propagation material treatment
M. incognita [2] = assay: Example 5: nematode control by tomato seed treatment, root galling (index adapted from Zeck); conditions: for Efficacy (%): tomato seeds, DS formulation, inoculated 14 days after sowing, galling 28 days after inoculation
M. incognita [3] = conditions: for Efficacy (%): DS formulation, inoculated 14 days after sowing, galling 28 days after inoculation; for average rating (gall rating, score 0.1-7): tomato, untreated control 4.1
M. incognita [4] = assay: Example 6: nematode control by cotton seed treatment, root galling (index adapted from Zeck); conditions: for Efficacy (%): cotton seeds, DS formulation, inoculated 14 days after sowing, galling 28 days after inoculation; for average rating (gall rating, score 0.1-7): cotton, untreated control 2.0
M. incognita [5] = assay: Example 1: nematode control by tomato seed treatment, root galling (index adapted from Zeck), two exposure timings; conditions: for Efficacy (%) at the two-week exposure / Efficacy (%) at the four-week exposure: tomato seeds, DS formulation, galling 28 days after inoculation; for Efficacy (%) at the two-week exposure: inoculated 14 days after sowing, 6000 eggs; for Efficacy (%) at the four-week exposure: inoculated 28 days after sowing, 9000 eggs; for average rating (gall rating, score 0.1-7): tomato
M. incognita [6] = assay: Example 4: nematode control by tomato seed treatment, root galling (index adapted from Zeck); conditions: for Efficacy (%) / germination of treated seeds: tomato seeds; for Efficacy (%): Methiocarb FS500, Thiodicarb DS, inoculated 14 days after sowing, galling 28 days after inoculation; for germination of treated seeds: FS500 formulation; for average rating (gall rating, score 0.1-7): tomato, untreated control 4.3
[7] = tomato seeds, 0.03 mg a.i./seed
[8] = tomato seeds, 0.01 mg a.i./seed
[9] = 1 mg a.i./seed, inoculated at 14 days after sowing, untreated control 3.5
[10] = 1 mg a.i./seed, inoculated at 28 days after sowing, untreated control 2.9

CNC(=O)O/N=C/C(C)(C)SC [Aldicarb]
Efficacy (%) (M. incognita [1]; [7]): 5.8% | Efficacy (%) (M. incognita [1]; tomato seeds, 0.1 mg a.i./seed): 5.8% | Efficacy (%) (M. incognita [1]; tomato seeds, 0.3 mg a.i./seed): 11.2% | Efficacy (%) (M. incognita [1]; tomato seeds, 1 mg a.i./seed): 16.7% | average rating (gall rating, score 0.1-7) (M. incognita [1]; 1 mg /seed): 3.8 | effective against Meloidogyne spp., for example, Meloidogyne incognita (Meloidogyne spp.): effective

CCCCNC(=O)n1c(NC(=O)OC)nc2ccccc21 [Benomyl]
Efficacy (%) (M. incognita [2]; 0.1 mg a.i./seed): 0% | Efficacy (%) (M. incognita [2]; 0.3 mg a.i./seed): 2.0% | Efficacy (%) (M. incognita [2]; 1 mg a.i./seed): 0% | average rating (gall rating, score 0.1-7) (M. incognita [2]; tomato, 1 mg a.i./seed, untreated control 4.2): The untreated control plants have an average rating of 4.2. Benomyl at 1 mg a.i. /seed is also rated at 4.2.

CCOP(=O)(SC(C)CC)SC(C)CC (stereo not drawn) [Cadusafos]
germination of treated seeds (M. incognita [3]; tomato seeds, 1 mg a.i./seed): did not germinate | Efficacy (%) (M. incognita [3]; [8]): 0% | Efficacy (%) (M. incognita [3]; [7]): 0% | Efficacy (%) (M. incognita [3]; tomato seeds, 0.1 mg a.i./seed): 2.0% | Efficacy (%) (M. incognita [3]; tomato seeds, 0.3 mg a.i./seed): 14.3% | average rating (gall rating, score 0.1-7) (M. incognita [3]; 0.3 mg /seed): 3.5 | Efficacy (%) (M. incognita [4]; 0.01 mg a.i./seed): 0% | Efficacy (%) (M. incognita [4]; 0.03 mg a.i./seed): 0% | Efficacy (%) (M. incognita [4]; 0.1 mg a.i./seed): 8.3% | Efficacy (%) (M. incognita [4]; 0.3 mg a.i./seed): 77.5% | Efficacy (%) (M. incognita [4]; 1 mg a.i./seed): 86.7% | average rating (gall rating, score 0.1-7) (M. incognita [4]; 0.3 mg /seed): 0.5 | average rating (gall rating, score 0.1-7) (M. incognita [4]; 1 mg a.i./seed): 0.3 | effective against Meloidogyne spp., for example, Meloidogyne incognita (Meloidogyne spp.): effective

CCOP(=S)(OCC)Oc1nc(Cl)c(Cl)cc1Cl [Chlorpyrifos]
Efficacy (%) (M. incognita [3]; [8]): 0% | Efficacy (%) (M. incognita [3]; [7]): 0% | Efficacy (%) (M. incognita [3]; tomato seeds, 0.1 mg a.i./seed): 0% | Efficacy (%) (M. incognita [3]; tomato seeds, 0.3 mg a.i./seed): 0% | Efficacy (%) (M. incognita [3]; tomato seeds, 1 mg a.i./seed): 0% | average rating (gall rating, score 0.1-7) (M. incognita [3]; 1 mg /seed): 4.3

CCOP(=S)(OCC)Oc1cc(C)nc(C(C)C)n1 [Diazinon]
Efficacy (%) (M. incognita [3]; [8]): 0% | Efficacy (%) (M. incognita [3]; [7]): 0% | Efficacy (%) (M. incognita [3]; tomato seeds, 0.1 mg a.i./seed): 0% | Efficacy (%) (M. incognita [3]; tomato seeds, 0.3 mg a.i./seed): 0% | Efficacy (%) (M. incognita [3]; tomato seeds, 1 mg a.i./seed): 0% | average rating (gall rating, score 0.1-7) (M. incognita [3]; 1 mg /seed): 4.2

CCOP(=S)(OCC)Oc1ccc(Cl)cc1Cl [Dichlofenthion]
Efficacy (%) (M. incognita [3]; [8]): 0% | Efficacy (%) (M. incognita [3]; [7]): 0% | Efficacy (%) (M. incognita [3]; tomato seeds, 0.1 mg a.i./seed): 0% | Efficacy (%) (M. incognita [3]; tomato seeds, 0.3 mg a.i./seed): 0% | Efficacy (%) (M. incognita [3]; tomato seeds, 1 mg a.i./seed): 0% | average rating (gall rating, score 0.1-7) (M. incognita [3]; 1 mg /seed): 4.7

CNC(=O)CSP(=S)(OC)OC [Dimethoate]
Efficacy (%) (M. incognita [3]; [8]): 0% | Efficacy (%) (M. incognita [3]; [7]): 2.0% | Efficacy (%) (M. incognita [3]; tomato seeds, 0.1 mg a.i./seed): 2.0% | Efficacy (%) (M. incognita [3]; tomato seeds, 0.3 mg a.i./seed): 0% | Efficacy (%) (M. incognita [3]; tomato seeds, 1 mg a.i./seed): 0% | average rating (gall rating, score 0.1-7) (M. incognita [3]; 1 mg /seed): 4.3

CCCSP(=O)(OCC)SCCC [Ethoprofos, Ethoprophos]
germination of treated seeds (M. incognita [1]; tomato seeds, 1 mg a.i./seed): did not germinate | Efficacy (%) (M. incognita [1]; [7]): 4.0% | Efficacy (%) (M. incognita [1]; tomato seeds, 0.1 mg a.i./seed): 2.2% | Efficacy (%) (M. incognita [1]; tomato seeds, 0.3 mg a.i./seed): 2.2% | average rating (gall rating, score 0.1-7) (M. incognita [1]; 0.3 mg /seed): 4.5

CCOP(=S)(OCC)Oc1ccc([S+](C)[O-])cc1 (stereo not drawn) [Fensulfothion]
Efficacy (%) (M. incognita [3]; [8]): 0% | Efficacy (%) (M. incognita [3]; [7]): 2.0% | Efficacy (%) (M. incognita [3]; tomato seeds, 0.1 mg a.i./seed): 0% | Efficacy (%) (M. incognita [3]; tomato seeds, 0.3 mg a.i./seed): 0% | Efficacy (%) (M. incognita [3]; tomato seeds, 1 mg a.i./seed): 20.4% | average rating (gall rating, score 0.1-7) (M. incognita [3]; 1 mg /seed): 3.3 | effective against Meloidogyne spp., for example, Meloidogyne incognita (Meloidogyne spp.): effective

CCOP(=O)(SC(C)CC)N1CCSC1=O (stereo not drawn) [Fosthiazate]
Efficacy (%) at the two-week exposure (M. incognita [5]; 0.03 mg a.i./seed): 0% | Efficacy (%) at the four-week exposure (M. incognita [5]; 0.03 mg a.i./seed): 0% | Efficacy (%) at the two-week exposure (M. incognita [5]; 0.1 mg a.i./seed): 40% | Efficacy (%) at the four-week exposure (M. incognita [5]; 0.1 mg a.i./seed): 0% | Efficacy (%) at the two-week exposure (M. incognita [5]; 0.3 mg a.i./seed): 28.6% | Efficacy (%) at the four-week exposure (M. incognita [5]; 0.3 mg a.i./seed): 10.9% | Efficacy (%) at the two-week exposure (M. incognita [5]; 1 mg a.i./seed): 59% and 59.4% | Efficacy (%) at the four-week exposure (M. incognita [5]; 1 mg a.i./seed): 40% | average rating (gall rating, score 0.1-7) (M. incognita [5]; [9]): 1.4 | average rating (gall rating, score 0.1-7) (M. incognita [5]; [10]): 1.8 | effective against Meloidogyne spp., for example, Meloidogyne incognita (Meloidogyne spp.): effective

CCOP(=S)(OCC)Oc1nc(Cl)n(C(C)C)n1 [Isazofos]
Efficacy (%) (M. incognita [1]; [7]): 4.0% | Efficacy (%) (M. incognita [1]; tomato seeds, 0.1 mg a.i./seed): 2.2% | Efficacy (%) (M. incognita [1]; tomato seeds, 0.3 mg a.i./seed): 34.8% | Efficacy (%) (M. incognita [1]; tomato seeds, 1 mg a.i./seed): 87.0% | average rating (gall rating, score 0.1-7) (M. incognita [1]; 1 mg /seed): 0.6 | effective against Meloidogyne spp., for example, Meloidogyne incognita (Meloidogyne spp.): effective

CNC(=O)Oc1cc(C)c(SC)c(C)c1 [Methiocarb]
Efficacy (%) (M. incognita [6]; 0.01 mg a.i./seed): 3.8% | Efficacy (%) (M. incognita [6]; 0.03 mg a.i./seed): 3.8% | Efficacy (%) (M. incognita [6]; 0.1 mg a.i./seed): 1.9% | germination of treated seeds (M. incognita [6]; 0.3 mg /seed): only 1 seed out of 6 germinated | Efficacy (%) (M. incognita [6]; 0.3 mg a.i./seed): 0% | germination of treated seeds (M. incognita [6]; 1 mg a.i./seed): did not germinate | average rating (gall rating, score 0.1-7) (M. incognita [6]; 0.1 mg /seed): 4.3 | average rating (gall rating, score 0.1-7) (M. incognita [6]; 0.3 mg /seed, only one germinated plant): 4.5

CNC(=O)O/N=C(\SC)C(=O)N(C)C [Oxamyl]
Efficacy (%) at the two-week exposure (M. incognita [5]; 0.03 mg a.i./seed): 7.1% | Efficacy (%) at the four-week exposure (M. incognita [5]; 0.03 mg a.i./seed): 0% | Efficacy (%) at the two-week exposure (M. incognita [5]; 0.1 mg a.i./seed): 0% | Efficacy (%) at the four-week exposure (M. incognita [5]; 0.1 mg a.i./seed): 2.9% | Efficacy (%) at the two-week exposure (M. incognita [5]; 0.3 mg a.i./seed): 0% | Efficacy (%) at the four-week exposure (M. incognita [5]; 0.3 mg a.i./seed): 0% | Efficacy (%) at the two-week exposure (M. incognita [5]; 1 mg a.i./seed): 0% | Efficacy (%) at the four-week exposure (M. incognita [5]; 1 mg a.i./seed): 4.5% | average rating (gall rating, score 0.1-7) (M. incognita [5]; [9]): 3.5 | average rating (gall rating, score 0.1-7) (M. incognita [5]; [10]): 2.8

CCOP(=S)(OCC)SCSCC [Phorate]
Efficacy (%) (M. incognita [1]; [7]): 22.1% | Efficacy (%) (M. incognita [1]; tomato seeds, 0.1 mg a.i./seed): 2.2% | Efficacy (%) (M. incognita [1]; tomato seeds, 0.3 mg a.i./seed): 2.2% | Efficacy (%) (M. incognita [1]; tomato seeds, 1 mg a.i./seed): 5.8% | average rating (gall rating, score 0.1-7) (M. incognita [1]; 1 mg /seed): 4.3

CCN(CC)C(=O)C(Cl)=C(C)OP(=O)(OC)OC [Phosphamidon]
Efficacy (%) (M. incognita [3]; [8]): 0% | Efficacy (%) (M. incognita [3]; [7]): 2.0% | Efficacy (%) (M. incognita [3]; tomato seeds, 0.1 mg a.i./seed): 0% | Efficacy (%) (M. incognita [3]; tomato seeds, 0.3 mg a.i./seed): 0% | Efficacy (%) (M. incognita [3]; tomato seeds, 1 mg a.i./seed): 0% | average rating (gall rating, score 0.1-7) (M. incognita [3]; 1 mg /seed): 4.1

CCOP(=S)(OCC)SCSC(C)(C)C [Terbufos]
Efficacy (%) (M. incognita [3]; [8]): 0% | Efficacy (%) (M. incognita [3]; [7]): 0% | Efficacy (%) (M. incognita [3]; tomato seeds, 0.1 mg a.i./seed): 0% | Efficacy (%) (M. incognita [3]; tomato seeds, 0.3 mg a.i./seed): 0% | Efficacy (%) (M. incognita [3]; tomato seeds, 1 mg a.i./seed): 0% | average rating (gall rating, score 0.1-7) (M. incognita [3]; 1 mg /seed): 4.1

CS/C(C)=N\OC(=O)N(C)SN(C)C(=O)O/N=C(\C)SC [Thiodicarb]
Efficacy (%) (M. incognita [6]; 0.03 mg a.i./seed): 0% | Efficacy (%) (M. incognita [6]; 0.1 mg a.i./seed): 0% | Efficacy (%) (M. incognita [6]; 0.3 mg a.i./seed): 0% | Efficacy (%) (M. incognita [6]; 1 mg a.i./seed): 1.9% | average rating (gall rating, score 0.1-7) (M. incognita [6]; 1 mg a.i./seed): 4.3

Source: EP1925205A1, “Plant propagation material treatment nematicides” (priority 2006, dated 2008)
